Here are results for 22 molecules from ChEMBL document CHEMBL5625232, “Development of selective class I protein arginine methyltransferase inhibitors through fragment-based drug design approach” (Eur J Med Chem, 2023).

A word on the IC50: it is the midpoint of a concentration-inhibition curve. Usually inhibition stands for the change of the read-out against control, counted positive when it falls. By solubility is commonly meant the concentration that dissolves in the medium under given conditions. One may read the logD as the decadic logarithm of the distribution of all forms, ionised or not, between an organic phase and buffer at a given pH.

Each structure is given as a SMILES string. In brackets after ≈: the same amount, converted by molar mass. Activity calls are given as the source filed them. The calls are words filed in the database; no cut-off is given here.

Series [1] concerns the target T1, Protein arginine N-methyltransferase 1 (Homo sapiens, UniProt Q99873). Kind of series: Displacement of 3H-SAM from PRMT1 (unknown origin) using biotinylated-histone H4 peptide as substrate incubated for 45 mins by SPA assay. On the technique in general: Loss of bound radioactivity is the signal in a displacement assay; it reports binding, not function.
Target sequence in this assay (Q99873 whole entry): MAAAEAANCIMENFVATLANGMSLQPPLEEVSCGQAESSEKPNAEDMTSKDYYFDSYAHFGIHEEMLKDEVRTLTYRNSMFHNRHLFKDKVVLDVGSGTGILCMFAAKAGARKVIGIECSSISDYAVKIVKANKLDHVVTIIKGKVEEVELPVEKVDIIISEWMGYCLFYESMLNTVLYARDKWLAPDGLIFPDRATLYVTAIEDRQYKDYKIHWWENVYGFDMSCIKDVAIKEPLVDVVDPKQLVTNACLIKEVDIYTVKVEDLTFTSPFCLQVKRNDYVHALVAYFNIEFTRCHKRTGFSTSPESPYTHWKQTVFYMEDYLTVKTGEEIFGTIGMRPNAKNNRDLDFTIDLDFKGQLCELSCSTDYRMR
Series [2] has as its target T2, Histone-lysine N-methyltransferase SMYD3 (Homo sapiens, UniProt Q9H7B4).
T2 sequence (Q9H7B4 whole entry): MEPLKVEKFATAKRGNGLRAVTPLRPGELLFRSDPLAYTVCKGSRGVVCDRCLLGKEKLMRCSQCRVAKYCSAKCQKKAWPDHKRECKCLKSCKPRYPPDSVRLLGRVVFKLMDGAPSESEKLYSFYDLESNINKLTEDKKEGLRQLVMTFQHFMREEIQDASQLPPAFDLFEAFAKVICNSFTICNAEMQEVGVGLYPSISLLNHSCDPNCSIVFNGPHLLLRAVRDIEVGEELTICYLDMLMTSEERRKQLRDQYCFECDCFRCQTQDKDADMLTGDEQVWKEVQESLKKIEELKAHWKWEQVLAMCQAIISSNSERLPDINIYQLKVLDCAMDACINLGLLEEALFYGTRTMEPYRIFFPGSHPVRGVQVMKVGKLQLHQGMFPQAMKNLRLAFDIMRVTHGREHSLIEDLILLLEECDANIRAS
Kind of series: Displacement of 3H-SAM from SMYD3 (unknown origin) using biotinylated-MAP3K2 as substrate incubated for 45 mins by SPA assay.

For series [3], the target named is T3, Histone-lysine N-methyltransferase SUV39H1 (Homo sapiens, UniProt O43463).
T3 sequence (O43463 whole entry): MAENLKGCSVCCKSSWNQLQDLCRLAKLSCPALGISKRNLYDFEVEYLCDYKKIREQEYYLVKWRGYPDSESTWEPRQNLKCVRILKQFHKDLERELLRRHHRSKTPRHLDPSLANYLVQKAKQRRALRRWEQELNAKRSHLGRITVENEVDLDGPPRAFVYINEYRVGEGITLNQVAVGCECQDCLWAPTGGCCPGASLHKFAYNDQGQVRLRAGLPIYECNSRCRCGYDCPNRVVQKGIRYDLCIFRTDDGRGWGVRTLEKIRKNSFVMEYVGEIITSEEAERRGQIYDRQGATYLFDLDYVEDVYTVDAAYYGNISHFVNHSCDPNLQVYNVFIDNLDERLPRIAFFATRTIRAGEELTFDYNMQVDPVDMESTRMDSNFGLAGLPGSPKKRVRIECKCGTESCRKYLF
The experiment in a line: Displacement of 3H-SAM from SUV39H1 (unknown origin) using biotinylated-histone H3 peptide as substrate incubated for 45 mins by SPA assay.

Series [4] concerns the target T1, Protein arginine N-methyltransferase 1. The experiment in a line: Displacement of 3H-SAM from PRMT1 (unknown origin) using biotinylated-histone H4 peptide as substrate at 30 uM incubated for 45 mins by SPA assay relative to control.
Target sequence in this assay (Q99873 whole entry, looked up): as the sequence (Q99873 whole entry) above
Series [5] concerns the target T4, Histone-lysine N-methyltransferase SMYD3 (Homo sapiens) (UniProt Q9H7B4).
T4 sequence (whole entry): T2 sequence (Q9H7B4 whole entry)
The experiment in a line: Displacement of 3H-SAM from SMYD3 (unknown origin) using biotinylated-MAP3K2 as substrate at 30 uM incubated for 45 mins by SPA assay relative to control.

The target in series [6] is Histone-lysine N-methyltransferase, H3 lysine-79 specific (Homo sapiens) (UniProt Q8TEK3). The experiment in a line: Displacement of 3H-SAM from DOT1L (unknown origin) at 30 uM incubated for 1 hr in presence of substrate by SPA assay relative to control.
Histone-lysine N-methyltransferase, H3 lysine-79 specific (Homo sapiens), sequence (Q8TEK3 whole entry, looked up): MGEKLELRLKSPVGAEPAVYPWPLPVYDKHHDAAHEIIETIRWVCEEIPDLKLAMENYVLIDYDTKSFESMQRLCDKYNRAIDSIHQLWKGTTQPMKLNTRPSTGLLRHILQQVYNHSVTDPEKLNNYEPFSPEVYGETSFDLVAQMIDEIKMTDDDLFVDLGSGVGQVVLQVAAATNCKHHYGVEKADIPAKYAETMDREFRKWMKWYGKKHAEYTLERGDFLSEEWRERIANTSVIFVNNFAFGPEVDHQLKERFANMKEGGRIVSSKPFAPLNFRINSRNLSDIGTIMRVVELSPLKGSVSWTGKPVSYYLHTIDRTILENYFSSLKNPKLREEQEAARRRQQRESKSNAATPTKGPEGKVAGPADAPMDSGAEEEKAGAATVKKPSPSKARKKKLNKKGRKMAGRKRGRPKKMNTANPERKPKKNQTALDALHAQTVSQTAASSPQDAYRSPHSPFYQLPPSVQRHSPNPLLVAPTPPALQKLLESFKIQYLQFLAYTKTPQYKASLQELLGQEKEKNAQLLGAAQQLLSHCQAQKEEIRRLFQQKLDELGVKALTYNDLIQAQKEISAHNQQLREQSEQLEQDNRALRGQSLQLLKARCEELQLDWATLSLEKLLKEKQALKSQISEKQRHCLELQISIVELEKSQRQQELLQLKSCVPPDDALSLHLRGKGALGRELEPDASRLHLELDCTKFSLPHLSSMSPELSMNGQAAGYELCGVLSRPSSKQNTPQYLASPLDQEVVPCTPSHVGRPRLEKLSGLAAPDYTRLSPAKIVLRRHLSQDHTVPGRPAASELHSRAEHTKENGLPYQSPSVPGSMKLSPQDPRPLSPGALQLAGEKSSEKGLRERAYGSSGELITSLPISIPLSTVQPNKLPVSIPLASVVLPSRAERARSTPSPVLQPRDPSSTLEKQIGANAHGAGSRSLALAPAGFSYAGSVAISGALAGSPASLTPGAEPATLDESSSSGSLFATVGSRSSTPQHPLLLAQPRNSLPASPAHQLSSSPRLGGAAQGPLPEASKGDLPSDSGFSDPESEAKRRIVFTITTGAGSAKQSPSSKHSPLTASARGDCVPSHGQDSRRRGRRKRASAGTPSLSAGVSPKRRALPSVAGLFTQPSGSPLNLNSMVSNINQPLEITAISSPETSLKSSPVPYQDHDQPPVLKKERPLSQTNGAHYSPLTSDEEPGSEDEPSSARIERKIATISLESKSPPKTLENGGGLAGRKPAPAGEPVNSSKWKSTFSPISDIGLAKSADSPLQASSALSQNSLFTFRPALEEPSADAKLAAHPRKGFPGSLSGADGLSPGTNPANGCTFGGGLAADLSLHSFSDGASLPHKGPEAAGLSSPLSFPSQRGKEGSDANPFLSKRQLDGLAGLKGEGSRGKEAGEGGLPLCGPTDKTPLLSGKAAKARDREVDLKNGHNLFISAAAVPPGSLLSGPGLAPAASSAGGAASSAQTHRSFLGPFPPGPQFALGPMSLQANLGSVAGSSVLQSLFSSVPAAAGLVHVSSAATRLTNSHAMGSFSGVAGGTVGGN
Series [7] has as its target T1, Protein arginine N-methyltransferase 1. Kind of series: Displacement of 3H-SAM from PRMT1 (unknown origin) using biotinylated-histone H4 peptide as substrate upto 200 uM incubated for 45 mins by SPA assay.
Target sequence in this assay (Q99873 whole entry, looked up): as the sequence (Q99873 whole entry) above
Series [8] addresses T4, Histone-lysine N-methyltransferase SMYD3 (Homo sapiens). Kind of series: Displacement of 3H-SAM from SMYD3 (unknown origin) using biotinylated-MAP3K2 as substrate at 10 uM incubated for 45 mins by SPA assay relative to control.
Series [9] addresses T5, Histone-lysine N-methyltransferase SUV39H1 (Homo sapiens) (UniProt O43463).
T5 sequence (whole entry): T3 sequence (O43463 whole entry)
The experiment in a line: Displacement of 3H-SAM from SUV39H1 (unknown origin) using biotinylated-histone H3 peptide as substrate at 10 uM incubated for 45 mins by SPA assay relative to control.

Series [10] has as its target T4, Histone-lysine N-methyltransferase SMYD3 (Homo sapiens). The experiment in a line: Displacement of 3H-SAM from SMYD3 (unknown origin) using biotinylated-MAP3K2 as substrate upto 200 uM incubated for 45 mins by SPA assay.
In series [11] the target is T5, Histone-lysine N-methyltransferase SUV39H1 (Homo sapiens). Kind of series: Displacement of 3H-SAM from SUV39H1 (unknown origin) using biotinylated-histone H3 peptide as substrate upto 200 uM incubated for 45 mins by SPA assay.
For series [12], the target named is T6, Histone-arginine methyltransferase CARM1 (Homo sapiens, UniProt Q86X55).
T6 sequence (Q86X55 whole entry): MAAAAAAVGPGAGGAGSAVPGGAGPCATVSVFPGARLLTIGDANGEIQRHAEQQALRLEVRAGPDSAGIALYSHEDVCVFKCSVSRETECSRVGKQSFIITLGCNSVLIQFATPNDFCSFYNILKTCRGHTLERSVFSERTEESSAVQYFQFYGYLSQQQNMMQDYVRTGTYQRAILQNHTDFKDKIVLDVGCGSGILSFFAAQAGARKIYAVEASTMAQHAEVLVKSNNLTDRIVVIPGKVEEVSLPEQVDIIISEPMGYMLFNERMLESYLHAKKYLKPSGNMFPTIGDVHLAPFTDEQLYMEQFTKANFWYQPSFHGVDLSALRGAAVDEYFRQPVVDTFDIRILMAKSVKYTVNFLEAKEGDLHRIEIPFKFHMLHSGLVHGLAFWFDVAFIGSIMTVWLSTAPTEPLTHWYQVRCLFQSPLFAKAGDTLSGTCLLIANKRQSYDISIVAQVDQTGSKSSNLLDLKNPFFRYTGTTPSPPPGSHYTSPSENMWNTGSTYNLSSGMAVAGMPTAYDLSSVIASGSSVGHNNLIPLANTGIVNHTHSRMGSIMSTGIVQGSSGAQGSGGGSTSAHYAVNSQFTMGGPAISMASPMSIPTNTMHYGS
Kind of series: Inhibition of PRMT4 (unknown origin).

In series [13] the target is T5, Histone-lysine N-methyltransferase SUV39H1 (Homo sapiens). Kind of series: Displacement of 3H-SAM from SUV39H1 (unknown origin) using biotinylated-histone H3 peptide as substrate at 30 uM incubated for 45 mins by SPA assay relative to control.
Series [14] can be described thus: Aqueous solubility of compound at pH 7.4 incubated for 24 hrs by HPLC-UV spectroscopy. The conditions noted are these: aqueous medium. The format is physicochemical.
Series [15] is described as follows: Lipophilicity, log D of compound in 1-octanol at pH 7.4 incubated for 4 hrs by HPLC-UV analysis. It is filed as physicochemical. The conditions noted are these: 1-octanol/aqueous phase.
Series [16] addresses T1, Protein arginine N-methyltransferase 1. The experiment in a line: Inhibition of PRMT1 (unknown origin).
Target sequence in this assay (Q99873 whole entry): as the sequence (Q99873 whole entry) above
Series [17] addresses Protein arginine N-methyltransferase 6 (Homo sapiens, UniProt Q96LA8). Kind of series: Inhibition of PRMT6 (unknown origin).
In series [18] the target is T7, Protein arginine N-methyltransferase 8 (Homo sapiens, UniProt Q9NR22). Kind of series: Inhibition of PRMT8 (unknown origin).
T7 sequence (Q9NR22 whole entry): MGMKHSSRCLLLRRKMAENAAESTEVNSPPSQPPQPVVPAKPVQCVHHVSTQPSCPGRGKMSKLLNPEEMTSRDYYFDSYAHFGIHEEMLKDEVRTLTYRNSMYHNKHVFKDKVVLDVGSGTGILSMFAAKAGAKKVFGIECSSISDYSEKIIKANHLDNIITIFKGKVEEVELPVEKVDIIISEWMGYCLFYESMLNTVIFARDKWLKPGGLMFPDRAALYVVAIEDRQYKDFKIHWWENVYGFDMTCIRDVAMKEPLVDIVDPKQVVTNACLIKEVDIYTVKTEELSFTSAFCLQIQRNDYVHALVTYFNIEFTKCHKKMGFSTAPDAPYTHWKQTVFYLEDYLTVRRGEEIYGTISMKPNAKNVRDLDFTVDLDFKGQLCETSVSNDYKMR
Series [19] concerns the target T7, Protein arginine N-methyltransferase 8. The experiment in a line: Displacement of 3H-SAM from human PRMT8 in presence of substrate by SPA assay.
The target in series [20] is T6, Histone-arginine methyltransferase CARM1. The experiment in a line: Displacement of 3H-SAM from human PRMT4 in presence of substrate by SPA assay.

Protein arginine N-methyltransferase 6, sequence (Q96LA8 whole entry): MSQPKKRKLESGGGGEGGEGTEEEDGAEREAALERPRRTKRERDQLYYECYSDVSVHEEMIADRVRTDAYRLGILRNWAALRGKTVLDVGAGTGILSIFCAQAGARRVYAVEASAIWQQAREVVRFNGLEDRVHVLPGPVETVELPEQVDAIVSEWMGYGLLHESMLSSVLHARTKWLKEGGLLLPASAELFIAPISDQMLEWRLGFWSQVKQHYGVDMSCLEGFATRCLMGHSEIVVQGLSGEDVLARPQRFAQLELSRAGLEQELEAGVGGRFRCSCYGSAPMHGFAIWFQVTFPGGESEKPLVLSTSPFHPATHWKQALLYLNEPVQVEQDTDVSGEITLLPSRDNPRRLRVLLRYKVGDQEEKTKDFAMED

Take `NCc1ccc(Nc2ncnc3cc(C(=O)N4CCC(N)C4)ccc23)cc1` (configuration not stated): the IC50 in series [1] is above 100 µM; in [2] it was above 200 µM; in series [3], above 100 µM.

Consider `CN(C)CCNC(=O)c1ccc2c(Nc3ccc(CN)cc3)ncnc2c1`, for which the inhibition in series [4] is below 25%; in [5] it was below 25%; in series [6], 5%. This molecule also displayed a concentration for half-maximal inhibition (IC50) in [3] of 22 µM.

For the molecule `CN1CCC(NC(=O)c2ccc3c(Nc4ccc(CN)cc4)ncnc3c2)C1` (configuration not stated), in [7], the inhibition result is “inactive”. Also, the inhibition in [8] and in series [9] was below 25% throughout.

Take `NCc1ccc(Nc2ncnc3cc(C(=O)NCCN4CCCC4)ccc23)cc1`: the figures for the inhibition in series [4], in series [5] and in series [6] were below 25%, below 25% and 9%, respectively. Moreover, the 50% inhibitory concentration (IC50) in series [3] is 14 µM.

With `NC1CCN(c2ncnc3cc(C(=O)NC4CCNCC4)ccc23)CC1`, the concentration for half-maximal inhibition (IC50) in series [1], in series [2] and in series [3] was above 200 µM in each case.

As to `NC1CCN(c2ncnc3cc(C(=O)NC4CCNC4)ccc23)CC1` (configuration not stated), the IC50 in series [2] turned out to be 60 µM; in series [3] it was 16 µM.

Regarding `NC1CCN(c2ncnc3cc(C(=O)NC4CCCC4)ccc23)CC1`, the inhibition result in [7], in series [10] and in [11] was “inactive” throughout.

As to `CNCCCNC(=O)c1ccc2c(Nc3ccc(CN)cc3)ncnc2c1`, the inhibition in series [8] and in series [9] was below 25% each time.

In the case of `CNCCNc1cccc(-n2nc(C(F)(F)F)cc2C(=O)NCc2ccccc2OC)c1`, in series [12], it took 0.005 µM to reach half-maximal inhibition (IC50).

Consider `NCc1ccc(Nc2ncnc3cc(C(=O)NC4CCNC4)ccc23)cc1` (configuration not stated), for which the IC50 was found to be 63 µM in series [2] and 47 µM in [3].

For `CN1CCN(CCNC(=O)c2ccc3c(Nc4ccc(CN)cc4)ncnc3c2)CC1`, the inhibition in series [13] is below 25%; in [4], below 25%; in series [5] it was below 25%; in series [6] it was 17%.

Regarding `NCc1ccc(Nc2ncnc3cc(C(=O)NCCN4CCNCC4)ccc23)cc1`, the IC50 in series [2] was 74 µM; in series [3], 35 µM.

On to `NC1CCN(c2ncnc3cc(C(=O)NCCN4CCNCC4)ccc23)CC1`, for which the half-inhibitory concentration (IC50) is above 100 µM in [1], above 200 µM in [2] and above 200 µM in series [3].

As for `CNCCNC(=O)c1ccc2c(Nc3ccc(CN)cc3)ncnc2c1`, the results for the inhibition in series [5] and in [6] were below 25% and 15%, respectively. The IC50 in series [3] is 23 µM.

As to `NCc1ccc(Nc2ncnc3cc(C(=O)NC4CCNCC4)ccc23)cc1`, the results for the half-inhibitory concentration (IC50) in series [1], in series [2] and in [3] were above 200 µM, above 100 µM and above 200 µM, respectively.

Regarding `CCCSc1ccc2nc(NC(=O)OC)[nH]c2c1` [ALBENDAZOLE], the concentration in solution in series [14] (solubility at 24 h) was 2.2 µg/mL (≈ 8.29 µM).

Take `COCCc1ccc(OCC(O)CNC(C)C)cc1` (configuration not stated) [METOPROLOL]: the logD at 4 h in series [15] is -0.28.

Turning to `NCc1ccc(NC(=O)c2ccc3c(N4CCC(N)CC4)ncnc3c2)cc1`, the figures for the IC50 in series [2] and in [3] were 8 µM and 7 µM, respectively.

Turning to `CN(C)CCN1CCC(NC(=O)c2ccc3c(Nc4ccc(CN)cc4)ncnc3c2)C1` (configuration not stated), the inhibition in series [5] is below 25%; in [6], 10%. This molecule returned a concentration for half-maximal inhibition (IC50) in [3] of 16 µM.

Turning to `CNCCNCc1c[nH]nc1-c1ccc(O[C@H]2C[C@H](OCCC3CCCCC3)C2)cc1`, the IC50 in series [16] turned out to be 0.119 µM; in series [17] it was 0.01 µM; in series [18], 0.223 µM.

`CNCCN1CCC(NC(=O)c2ccc3c(Nc4ccc(CNC)cc4)ncnc3c2)C1` (configuration not stated): the concentration for half-maximal inhibition (IC50) in [1] worked out at 2 µM. Also, the inhibition in series [8] and in series [9] was below 25% in each case.

Consider `CC(C)Oc1ccc(-c2c[nH]cc2CN(C)CCN)cc1`, for which the IC50 came out at 9 µM in series [19] and 45 µM in series [20].
